Toxic doses and inconclusive results are not listed. Rule as the data show it: active = T/C of 150% or more; inactive = T/C below 125%.
Test system: L1210 leukemia ip in BDF1 mice, survival T/C
Experiment: NCI In Vivo Anticancer Drug Screen. Data for tumor model L1210 Leukemia (intraperitoneal) in B6D2F1 (BDF1) mice
Settings: endpoint: mean survival time, higher = longer survival
How it was run: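 Transplantable tumor model; survival measured in treated vs vehicle control mice. Value = treated/control.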

[1] = dose: 100.0 mg/kg/injection, schedule: Q01DX009 (ip), vehicle: Klucel (hydroxypropylcellulose) (HPC)
[2] = dose: 200.0 mg/kg/injection, schedule: Q01DX009 (ip), vehicle: Klucel (hydroxypropylcellulose) (HPC)
[3] = dose: 400.0 mg/kg/injection, schedule: Q01DX009 (ip), vehicle: Klucel (hydroxypropylcellulose) (HPC)
[4] = dose: 100.0 mg/kg/injection, schedule: Q04DX003 (ip), vehicle: acetone
[5] = dose: 200.0 mg/kg/injection, schedule: Q04DX003 (ip), vehicle: acetone
[6] = dose: 400.0 mg/kg/injection, schedule: Q04DX003 (ip), vehicle: acetone
[7] = dose: 6.25 mg/kg/injection, schedule: Q01DX009 (ip), vehicle: saline with Tween-80
[8] = dose: 12.5 mg/kg/injection, schedule: Q01DX009 (ip), vehicle: saline with Tween-80
[9] = dose: 25.0 mg/kg/injection, schedule: Q04DX003 (ip), vehicle: Klucel (hydroxypropylcellulose) (HPC)
[10] = dose: 50.0 mg/kg/injection, schedule: Q01DX009 (ip), vehicle: saline with Tween-80
[11] = dose: 100.0 mg/kg/injection, schedule: Q01DX009 (ip), vehicle: saline with Tween-80
[12] = dose: 200.0 mg/kg/injection, schedule: Q01DX009 (ip), vehicle: saline with Tween-80
[13] = dose: 100.0 mg/kg/injection, schedule: Q01DX001 (ip), vehicle: Klucel (hydroxypropylcellulose) (HPC)
[14] = dose: 200.0 mg/kg/injection, schedule: Q01DX001 (ip), vehicle: Klucel (hydroxypropylcellulose) (HPC)
[15] = dose: 400.0 mg/kg/injection, schedule: Q01DX001 (ip), vehicle: Klucel (hydroxypropylcellulose) (HPC)
[16] = dose: 100.0 mg/kg/injection, schedule: Q04DX003 (ip), vehicle: saline
[17] = dose: 200.0 mg/kg/injection, schedule: Q04DX003 (ip), vehicle: saline
[18] = dose: 25.0 mg/kg/injection, schedule: Q01DX009 (ip), vehicle: Klucel (hydroxypropylcellulose) (HPC)
[19] = dose: 100.0 mg/kg/injection, schedule: Q04DX003 (ip), vehicle: Klucel (hydroxypropylcellulose) (HPC)
[20] = dose: 200.0 mg/kg/injection, schedule: Q04DX003 (ip), vehicle: Klucel (hydroxypropylcellulose) (HPC)
[21] = dose: 400.0 mg/kg/injection, schedule: Q04DX003 (ip), vehicle: Klucel (hydroxypropylcellulose) (HPC)
[22] = dose: 12.5 mg/kg/injection, schedule: Q01DX009 (ip), vehicle: saline

Measured: T/C

CC(NCl)c1ccccc1 (stereo unspecified)
inactive: dose: 100.0 mg/kg/injection, schedule: Q01DX001 (ip), vehicle: saline 95 % of control | dose: 200.0 mg/kg/injection, schedule: Q01DX001 (ip), vehicle: saline 100 % of control | dose: 400.0 mg/kg/injection, schedule: Q01DX001 (ip), vehicle: saline 100 % of control

Oc1ccccc1C=NCCN1CC1.Oc1ccccc1C=NCCN1CC1.[Co+2]
inactive: dose: 20.0 mg/kg/injection, schedule: Q04DX002 (ip), vehicle: saline + alcohol 102 % of control | dose: 40.0 mg/kg/injection, schedule: Q04DX002 (ip), vehicle: saline + alcohol 106 % of control | dose: 80.0 mg/kg/injection, schedule: Q04DX002 (ip), vehicle: saline + alcohol 98 % of control

Oc1cccc(/C=N/NC(=S)Nc2ccccc2)c1
inactive: [1] 104 % of control | [2] 96 % of control | [3] 93 % of control

O=C1c2ccccc2CCC1(Br)C(Br)c1ccccc1 (stereo unspecified)
inactive: [4] 96 % of control | [5] 101 % of control | [6] 92 % of control

CCC[CH2][Hg][Cl]
inactive: [7] 94 % of control | dose: 6.25 mg/kg/injection, schedule: Q04DX003 (ip), vehicle: Klucel (hydroxypropylcellulose) (HPC) 93 % of control | [8] 92 % of control | dose: 12.5 mg/kg/injection, schedule: Q04DX003 (ip), vehicle: Klucel (hydroxypropylcellulose) (HPC) 92 % of control | [9] 88 % of control

COc1cc(C)ccc1Cl
inactive: [10] 107 % of control | [11] 113 % of control | [12] 110 % of control

CS(=O)(=O)C(Cl)(Cl)S(C)(=O)=O
inactive: [7] 116 % of control | [8] 102 % of control | dose: 25.0 mg/kg/injection, schedule: Q01DX009 (ip), vehicle: saline with Tween-80 104 % of control

Cc1ccc(S(=O)(=O)OCC2OCOC2C2OCOC2CI)cc1 (stereo unspecified)
inactive: dose: 100.0 mg/kg/injection, schedule: Q01DX001 (ip), vehicle: saline with Tween-80 101 % of control | dose: 200.0 mg/kg/injection, schedule: Q01DX001 (ip), vehicle: saline with Tween-80 101 % of control | dose: 400.0 mg/kg/injection, schedule: Q01DX001 (ip), vehicle: saline with Tween-80 93 % of control

O=C(COc1ccc(Cl)c(Cl)c1)NCc1cccc(NC(=O)c2cccc(S(=O)(=O)F)c2)c1
inactive: [13] 107 % of control | [14] 98 % of control | [15] 91 % of control

CCC[N+](C)(C)CCCOC(=O)C1C2CC3OC(=O)C1C3C2 (stereo unspecified)
inactive: dose: 12.5 mg/kg/injection, schedule: Q04DX003 (ip), vehicle: saline 106 % of control | dose: 25.0 mg/kg/injection, schedule: Q04DX003 (ip), vehicle: saline 100 % of control | dose: 50.0 mg/kg/injection, schedule: Q04DX003 (ip), vehicle: saline 100 % of control | [16] 97 % of control | [17] 91 % of control

NC(=O)C1=C(CCCCl)c2ccccc2C1=O
inactive: [10] 100 % of control

Clc1c(Cl)c([O][Sn]([c]2ccccc2)([c]2ccccc2)[c]2ccccc2)c(Cl)c(Cl)c1[O][Sn]([c]1ccccc1)([c]1ccccc1)[c]1ccccc1
inactive: dose: 3.12 mg/kg/injection, schedule: Q01DX009 (ip), vehicle: Klucel (hydroxypropylcellulose) (HPC) 108 % of control | dose: 6.25 mg/kg/injection, schedule: Q01DX009 (ip), vehicle: Klucel (hydroxypropylcellulose) (HPC) 91 % of control | [18] 90 % of control

COC(=O)C1C(=C(c2ccccc2)c2ccccc2)C1c1ccccc1 (stereo unspecified)
inactive: dose: 75.0 mg/kg/injection, schedule: Q04DX003 (ip), vehicle: Klucel (hydroxypropylcellulose) (HPC) 96 % of control | [13] 95 % of control | dose: 100.0 mg/kg/injection, schedule: Q01DX001 (ip), vehicle: steriod suspending solution 93 % of control | dose: 150.0 mg/kg/injection, schedule: Q04DX003 (ip), vehicle: Klucel (hydroxypropylcellulose) (HPC) 94 % of control | [14] 95 % of control | dose: 200.0 mg/kg/injection, schedule: Q01DX001 (ip), vehicle: steriod suspending solution 98 % of control | dose: 300.0 mg/kg/injection, schedule: Q04DX003 (ip), vehicle: Klucel (hydroxypropylcellulose) (HPC) 100 % of control | [15] 103 % of control | dose: 400.0 mg/kg/injection, schedule: Q01DX001 (ip), vehicle: steriod suspending solution 95 % of control

Oc1cc(Br)ccc1C=Nc1ccc(N2CCCCC2)cc1
inactive: [1] 92 % of control | [19] 100 % of control | [2] 94 % of control | [20] 101 % of control | [3] 89 % of control | [21] 103 % of control

[N-]=[N+]=NCC(=O)NCc1cnccn1
inactive: [22] 114 % of control | dose: 25.0 mg/kg/injection, schedule: Q01DX009 (ip), vehicle: saline 105 % of control | dose: 50.0 mg/kg/injection, schedule: Q01DX009 (ip), vehicle: saline 112 % of control | [16] 102 % of control | [17] 96 % of control | dose: 400.0 mg/kg/injection, schedule: Q04DX003 (ip), vehicle: saline 96 % of control

Cc1ccc(O)c(-c2ccccc2)c1
inactive: [13] 100 % of control | [14] 100 % of control | [15] 103 % of control

CC1CC[N+]2(C)CCCC12 (stereo unspecified)
inactive: dose: 6.25 mg/kg/injection, schedule: Q01DX009 (ip), vehicle: saline 100 % of control | [22] 100 % of control

CCCCCCCCCC(O)CCCCC (stereo unspecified)
inactive: [11] 103 % of control | [19] 98 % of control | [12] 107 % of control | [20] 97 % of control | [21] 101 % of control

COc1n[n+]([O-])c(Cl)c(C)c1[N+](=O)[O-]
inactive: dose: 100.0 mg/kg/injection, schedule: Q04DX002 (ip), vehicle: saline with Tween-80 105 % of control | dose: 200.0 mg/kg/injection, schedule: Q04DX002 (ip), vehicle: saline with Tween-80 102 % of control | dose: 400.0 mg/kg/injection, schedule: Q04DX002 (ip), vehicle: saline with Tween-80 96 % of control

O=C1CCC(OC(=O)c2ccccc2)CC1
inactive: [1] 97 % of control | [19] 101 % of control | [2] 95 % of control | [20] 101 % of control | [3] 100 % of control | [21] 90 % of control

O=c1cc(-c2ccccc2)nc2c(Cl)cc(Cl)cn12
inactive: [4] 95 % of control | [5] 104 % of control | [6] 96 % of control

O=S(Sc1ccc(N(CCCl)CCCl)cc1)c1ccc(N(CCCl)CCCl)cc1 (stereo unspecified)
inactive: [13] 95 % of control | dose: 100.0 mg/kg/injection, schedule: Q01DX009 (ip), vehicle: gum acacia 86 % of control | [14] 108 % of control | dose: 200.0 mg/kg/injection, schedule: Q01DX009 (ip), vehicle: gum acacia 93 % of control | [15] 93 % of control | dose: 400.0 mg/kg/injection, schedule: Q01DX009 (ip), vehicle: gum acacia 122 % of control

COC(=O)c1cc(NC(=O)CC(=O)c2cccc(N)c2)cc(C(=O)OC)c1
inactive: [19] 104 % of control | [20] 96 % of control | [21] 94 % of control

NC1CCC2CCCCC2C1 (stereo unspecified)
inactive: [18] 101 % of control | [9] 95 % of control | dose: 50.0 mg/kg/injection, schedule: Q01DX009 (ip), vehicle: Klucel (hydroxypropylcellulose) (HPC) 93 % of control | dose: 50.0 mg/kg/injection, schedule: Q04DX003 (ip), vehicle: Klucel (hydroxypropylcellulose) (HPC) 100 % of control | [1] 98 % of control | [19] 94 % of control
